Test results taken from patent publication EP2468280A1, “Use of prokineticin 1 receptor agonists to promote the differentiation of epicardin+ progenitor cells” (Université de Strasbourg, priority 2010, dated 2012).

Experiments:
PKR1 = experiment: Measurement of intracellular calcium in CHO-K1-PKR1 cells (Fluo 4-AM, confocal microscope); type: cell-based; settings: CHO-K1 cells infected with adenovirus carrying PKR1 cDNA, 48h after infection, 37°C
Protocol: CHO-K1 (Chinese Hamster Ovary) cells were infected with an adenovirus carrying PKR1 cDNA. Cells were then stimulated, 48h after infection, with or without IS1 agonists, at 37°C.
Calcium imaging was conducted essentially as previously described (Horinouchi et al., 2007) In brief, Intracellular free calcium [Ca^2+]i was measured with the fluorescent Ca^2+ indicator dye Fluo 4-AM, the membrane-permeant acetoxymethyl ester form of Fluo 4 (Invitrogen). Changes in [Ca^2+]i were determined from variations in the fluorescence intensity of Fluo 4-AM. Briefly, trypsinized CHO-K1-PKR1 cells were seeded onto glass bottom culture dishes (MatTek, MA, USA) for 24 h. […] The fluorescence in the cells was excited at a wavelength of 488 nm and a series of images (total exposure time: 300 s) were acquired at 0.5s intervals at emission wavelength 518 nm. Data are presented as the fluorescence intensity of 3 randomly chosen cells within a randomly selected 40× field. To evaluate the effect of IS1 compound on [Ca^2+]i in CHO-K-PKR1, the maximum change in fluorescence intensity upon addition of IS1 was measured and normalized to the baseline fluorescence obtained before IS 1 addition.

GFP-PKR1 = target: T1, GFP-PKR1 (Homo sapiens, UniProt Q8TCW9); experiment: PKR1 internalization in CHO-K1 cells transfected with GFP-PKR1; type: cell-based; settings: CHO-K1 cells expressing GFP-PKR1, 48h after transfection, 37°C, 20 min imaging
T1 construct: expressed in transfected cells; host or cells: CHO-K1 cells, transient transfection with Lipofectamine2000
Protocol: The capacity of agonist compounds to induce internalization of PKR1 was assessed. Therefore, CHO-K1 cells transfected with a plasmid encoding GFP-PKR1 (Green Fluorescent Protein-PKR1), in the presence of Lipofectamine2000 (Invitrogen), were used. Cells were stimulated, 48h after transfection, with or without agonist compound, at 37°C. GFP is a fluorescent protein fusion (26.9 kDa) which has a major excitation peak at a wavelength of 396 nm and a minor one at 472 nm. Its emission peak is at 504 nm which is in the lower green portion of the visible spectrum. Fluorescence allowed tracking the localization of PKR1 after stimulation by the agonist (membrane or subcellular). Cells were seeded in glass-bottom coated with polyL-lysine and receptor studies were performed in the presence of various PKR1-ligands. Samples were observed under a Leica confocal microscope (SP2 AOBS MP) with objective 63× at 37°C. Images were automatically recorded during 20 min, with increasing time intervals to avoid bleaching effects because of repetitive scanning. Reconstituted videos contained 42 images and lasted 2 second.

[1] = tested on: Coronary endothelial cells (H5V cells); experiment: In vitro angiogenesis, tube-like formation on Matrigel; type: cell-based; settings: serum free medium, 24h
Protocol: Coronary endothelial cells (H5V cells) were maintained in DMEM supplemented with 10% heat inactivated Fetal Calf Serum (FCS), glutamine (1mM) under 5% CO2 at 37°C.
In order to evaluate the potential angiogenic activity of the non peptide PKR1 agonists, the test of Growth Factor Reduced Matrigel (GFR Matrigel) 24 well plate was performed. Matrigel leads to the differentiation of many cell types and induces the formation and organization of endothelial cells into capillary tubules. Twenty-four-well culture plates were coated with Matrigel and endothelial cells (H5V) were trypsin-harvested and seeded onto the coated plates at 10^5 cells per well in the serum free assay medium with PKR1 agonists, IS1 and prokineticin-2, and incubated at 37°C for 24h. Tube formation as two dimensional branched structures were observed using an inverted phase contrast microscope (Zeiss), and the number of branching points were quantified in per well from each sample. Each experiment was repeated at least three times. Images were captured at a magnification of X10 with a digital microscope camera system (Urayama K et al., 2007).

cEPPC = experiment: Cardiomyocyte differentiation of cEPPC (contractility by time lapse microscopy, troponin immunostaining); type: cell-based, C57BL/B6 mice; settings: beta adrenergic stimuli, isoproterenol 25 nM
Protocol: Hearts were removed from P1 neonate C57BL/B6 mice or PKR1 null mutant mice, cut into pieces (approximately 1 mm^3), rinsed in PBS to remove excess blood and plated onto 0.1 % gelatin petri dish in DMEM containing GlutaMax, 4.5 g /L glucose, penicillin, streptomycin and 15 % fetal calf serum. Cultures were maintained with minimum disturbance to allow explants to adhere. All cells were maintained at 37°C in a humidified air 5% CO2 atmosphere. After 4 days explants were removed and cells were gently washed and fresh medium with DMEM containing GlutaMax, 4.5 g /L glucose, penicillin, streptomycin and 10 % fetal calf serum serum was added. The cells were cultured during 10 days and trypsinized for experimentation.
For cardiomyogenesis, cells were plated at 2x10^4 onto 1% gelatin coated culture chamber in DMEM containing GlutaMax, 4.5 g /L glucose, penicillin, streptomycin and 10 % fetal calf serum. The cells were maintained in culture during six days and medium were change every 2 days. After 6 days, cardiomyocyte differentiation can be induced using culture medium supplemented with 1µM dexamethasone, 50µg/ml ascorbic acid, 10mM glycerophosphate without or with 10 nM of prokineticin-2. The medium was change every 2 days during 36 days. […]
Cells were fixed in 3,7% formaldehyde at 4°C 1 hours. […] The immunofluorescence was detected by Leica TCSNT fluorescent microscope.

T1 sequence (Q8TCW9 whole entry): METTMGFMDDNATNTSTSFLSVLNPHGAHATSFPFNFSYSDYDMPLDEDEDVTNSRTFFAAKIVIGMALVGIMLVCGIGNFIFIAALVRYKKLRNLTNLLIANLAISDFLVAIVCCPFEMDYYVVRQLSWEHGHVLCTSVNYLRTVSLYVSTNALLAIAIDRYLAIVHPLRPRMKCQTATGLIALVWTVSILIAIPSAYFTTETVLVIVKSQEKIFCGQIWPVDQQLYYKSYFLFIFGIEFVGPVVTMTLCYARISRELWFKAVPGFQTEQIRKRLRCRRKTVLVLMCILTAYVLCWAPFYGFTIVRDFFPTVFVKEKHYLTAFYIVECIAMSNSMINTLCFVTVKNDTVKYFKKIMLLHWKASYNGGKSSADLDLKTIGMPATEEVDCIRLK

For `O=C(NCc1cccnc1)/C(=C\c1ccco1)NC(=O)c1ccccc1` [IS1], the “activation of PKR1 signalling pathway (intracellular calcium release)” value (PKR1) was “able to activate the PKR1 signalling pathway”, the PKR1 internalization (GFP-PKR1) was “specifically interacts with PKR1 and induces its internalization” and the “in vitro angiogenesis (tube-like formation of the endothelial cells on Matrigel)” value [1] was “Induction of in vitro angiogenesis”.

`CC(C)NCC(O)c1ccc(O)c(O)c1` (stereo not shown) [isoproterenol, Isoproterenol] was tested, and the “beating frequence of cardiomyocytes induced from cEPPC” value (cEPPC) was “beating frequence is increased”.
